From PMC6001238, “Iterative Chemical Engineering of Vancomycin Leads to Novel Vancomycin Analogs With a High in Vitro Therapeutic Index” (Frontiers in Microbiology, 2018)
Converted amounts (≈) assume the structure as drawn. Read-outs that look alike come from different tables or passages of the source.

Columns and labels:
E. faecalis VSE 1 = assay: MIC, broth microdilution, vancomycin-sensitive E. faecalis (VSE 1); format: cell-based, Enterococcus faecalis
Method in brief: (§1)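 Broth microdilution per CLSI; controls = ultrapure water, non-inoculated broth. One set: + vancomycin 10 μM final alongside test analogue/control drug.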

E. faecalis VRE 6 = assay: MIC, broth microdilution, vancomycin-resistant E. faecalis VRE 6 (VanA); format: cell-based, Enterococcus faecalis
Method in brief: as §1

E. faecalis VRE 53 = assay: MIC, broth microdilution, vancomycin-resistant E. faecalis VRE 53 (VanA); format: cell-based, Enterococcus faecalis
Method in brief: as §1

E. faecalis VRE 29 = assay: MIC, broth microdilution, vancomycin-resistant E. faecalis VRE 29 (VanA); format: cell-based, Enterococcus faecalis
Method in brief: as §1

E. faecalis VRE 37 = assay: MIC, broth microdilution, vancomycin-resistant E. faecalis VRE 37 (VanA); format: cell-based, Enterococcus faecalis
Method in brief: as §1

[1] = system: Murine leukemia (L1210) cells; assay: Cytostatic activity, L1210 cell proliferation; format: cell-based; conditions: Mus musculus, L1210, 48 h; mean ± SD of three experiments; highest concentration tested 250 µM; 2 days; read-out: Toxicity (IC50) L1210
Method in brief: (§2)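 Suspensions (300,000–500,000 cells/mL) combined with equal volumes of diluted compound; 37°C; L1210 2 d / CEM 3 d / HeLa 4 d; counted by Coulter counter; IC50 vs untreated wells.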

[2] = system: human T-lymphocyte (CEM) cells; assay: Cytostatic activity, CEM cell proliferation; format: cell-based; conditions: Homo sapiens, CCRF-CEM, 72 h; mean ± SD of three experiments; highest concentration tested 250 µM; 3 days; read-out: Toxicity (IC50) CEM
Method in brief: as §2

[3] = system: human cervix carcinoma (HeLa) cells; assay: Cytostatic activity, HeLa cell proliferation; format: cell-based; conditions: Homo sapiens, HeLa, 96 h; mean ± SD of three experiments; highest concentration tested 250 µM; 4 days; read-out: Toxicity (IC50) HeLa
Method in brief: as §2

[4] = system: L1210, CEM and HeLa cell lines; assay: Cytostatic activity, average or summary over L1210, CEM and HeLa; format: cell-based
Method in brief: as §2

[5] = system: S. aureus VSSA (ATCC 6538); assay: MIC, broth microdilution, vancomycin-sensitive S. aureus (VSSA/MSSA, ATCC 6538); format: cell-based, Staphylococcus aureus
Method in brief: as §1

S. aureus VISA/HIP5827 = assay: MIC, broth microdilution, vancomycin-intermediate S. aureus VISA HIP5827; format: cell-based, Staphylococcus aureus
Method in brief: as §1

S. aureus VRSA = assay: MIC, broth microdilution, vancomycin-resistant S. aureus (VRSA); format: cell-based, Staphylococcus aureus
Method in brief: as §1

MRSA KS2 = assay: MIC, broth microdilution, MRSA KS2; format: cell-based, Staphylococcus aureus
Method in brief: as §1

MRSA KS6 = assay: MIC, broth microdilution, MRSA KS6; format: cell-based, Staphylococcus aureus; conditions: Staphylococcus aureus MRSA KS6; read-out: MIC
Method in brief: as §1

MRSA KS89 = assay: MIC, broth microdilution, MRSA KS89; format: cell-based, Staphylococcus aureus
Method in brief: as §1

MRSA KS1 = assay: MIC, broth microdilution, MRSA KS1; format: cell-based, Staphylococcus aureus
Method in brief: as §1

33 clinical VRE isolates = assay: MIC against a set of 33 clinical VRE isolates (range, MIC50, TI); format: cell-based, Enterococcus faecalis
Method: (§3) The minimum inhibitory concentration (MIC) was determined using the broth microdilution method according to the antimicrobial susceptibility testing standards of the clinical and laboratory standards institute ([Clinical and Laboratory Standards Institute [CLSI], 2012]). Ultrapure water and non-inoculated broth were used as controls. In one case, a final concentration of 10 μM vancomycin was included with the vancomycin analog or control antibiotic.

[6] = system: 24 clinical MRSA isolates; assay: MIC against a set of 24 clinical MRSA isolates (range, MIC50, TI); format: cell-based, Staphylococcus aureus
Method: as §3

[7] = system: Clostridium difficile ATJ ribotype 014/20; assay: MIC, plate drop assay, C. difficile ATJ ribotype 014/20; format: cell-based
Method in brief: (§4)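 Twofold dilution series of test compounds were spotted onto C. difficile lawns in 0.4% BHI agar containing added calcium and magnesium salts. After overnight anaerobic incubation at 37°C, growth inhibition was scored by spot clearing; triplicate runs, ultrapure water negative control.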

[8] = system: Clostridium difficile AIU ribotype 027; assay: MIC, plate drop assay, C. difficile AIU ribotype 027; format: cell-based
Method in brief: as §4

VE 148 (VanB) = assay: MIC, VanB-type VRE strain VE 148; format: cell-based, Enterococcus; conditions: Enterococcus; VE 148, VanB; read-out: MIC
Method: as §3

VE 149 (VanB) = assay: MIC, VanB-type VRE strain VE 149; format: cell-based, Enterococcus; conditions: Enterococcus; VE 149, VanB; read-out: MIC
Method: as §3

VE 150 (VanB) = assay: MIC, VanB-type VRE strain VE 150; format: cell-based, Enterococcus; conditions: Enterococcus; VE 150, VanB; read-out: MIC
Method: as §3

VE 152 (VanB) = assay: MIC, VanB-type VRE strain VE 152; format: cell-based, Enterococcus; conditions: Enterococcus; VE 152, VanB; read-out: MIC
Method: as §3

VE 157 (VanB) = assay: MIC, VanB-type VRE strain VE 157; format: cell-based, Enterococcus; conditions: Enterococcus; VE 157, VanB; read-out: MIC
Method: as §3

VE 82 (VanC1) = assay: MIC, VanC1-type VRE strain VE 82; format: cell-based, Enterococcus gallinarum; conditions: Enterococcus gallinarum; VE 82, VanC1; read-out: MIC
Method: as §3

MRSA = assay: Minimum bactericidal concentration against MRSA; format: cell-based, Staphylococcus aureus
Method: Plates were incubated overnight at 37°C and colony growth was inspected.

CCCCCCCCCC(=O)N[C@@H](Cc1c[nH]c2ccccc12)C(=O)N[C@H](CC(N)=O)C(=O)N[C@@H](CC(=O)O)C(=O)N[C@@H]1C(=O)NCC(=O)N[C@@H](CCCN)C(=O)N[C@@H](CC(=O)O)C(=O)N[C@H](C)C(=O)N[C@@H](CC(=O)O)C(=O)NCC(=O)N[C@H](CO)C(=O)N[C@@H]([C@H](C)CC(=O)O)C(=O)N[C@@H](CC(=O)c2ccccc2N)C(=O)O[C@@H]1C [Daptomycin, reference compound]
MIC (E. faecalis VSE 1; VSE1, Enterococcus faecalis VSE 1 (vancomycin-sensitive), read-out: MIC): > 6.25 µM | MIC-fold improvement vs. vancomycin (E. faecalis VSE 1; VSE 1, ratio of MIC of vancomycin and MIC of analogue): <0.2 | MIC (E. faecalis VRE 6; Enterococcus faecalis VRE 6 (vancomycin-resistant), read-out: MIC): 6.25 µM (≈ 10.1 µg/mL) | MIC-fold improvement vs. vancomycin (E. faecalis VRE 6; VRE 6, ratio of MIC of vancomycin and MIC of analogue): 32 | MIC (E. faecalis VRE 53; Enterococcus faecalis VRE 53 (vancomycin-resistant), read-out: MIC): 50 µM (≈ 81 µg/mL) | MIC-fold improvement vs. vancomycin (E. faecalis VRE 53; VRE 53, ratio of MIC of vancomycin and MIC of analogue): 8 | MIC (E. faecalis VRE 29; Enterococcus faecalis VRE 29 (vancomycin-resistant), read-out: MIC): 50 µM (≈ 81 µg/mL) | MIC-fold improvement vs. vancomycin (E. faecalis VRE 29; VRE 29, ratio of MIC of vancomycin and MIC of analogue): 8 | MIC (E. faecalis VRE 37; Enterococcus faecalis VRE 37 (vancomycin-resistant), read-out: MIC): 50 µM (≈ 81 µg/mL) | MIC-fold improvement vs. vancomycin (E. faecalis VRE 37; VRE 37, ratio of MIC of vancomycin and MIC of analogue): 8 | IC50 [1]: > 250 µM | IC50 [2]: > 250 µM | IC50 [3]: > 250 µM | IC50 ([4]; average IC50 used for TI in Table S5, >250 entered as 250, read-out: IC50): 250 µM | IC50 ([4]; average of L1210, CEM and HeLa, read-out: Toxicity (IC50) Average): > 250 µM | MIC ([5]; ATCC6538, Staphylococcus aureus VSSA, read-out: MIC): > 6.25 µM | MIC-fold improvement vs. vancomycin ([5]; VSSA, ratio of MIC of vancomycin and MIC of analogue): <0.1 | MIC (S. aureus VISA/HIP5827; Staphylococcus aureus VISA/HIP5827, read-out: MIC): > 12.5 µM | MIC-fold improvement vs. vancomycin (S. aureus VISA/HIP5827; VISA/HIP5827, ratio of MIC of vancomycin and MIC of analogue): <0.5 | MIC (S. aureus VRSA; Staphylococcus aureus VRSA, read-out: MIC): 12.5 µM (≈ 20.3 µg/mL) | MIC-fold improvement vs. vancomycin (S. aureus VRSA; VRSA, ratio of MIC of vancomycin and MIC of analogue): 8 | MIC-fold improvement vs. vancomycin (MRSA KS2; MRSA KS2, ratio of MIC of vancomycin and MIC of analogue): 0.05 | MIC (MRSA KS2; Staphylococcus aureus MRSA KS2, read-out: MIC): 12.5 µM (≈ 20.3 µg/mL) | MIC (MRSA KS6): > 12.5 µM | MIC-fold improvement vs. vancomycin (MRSA KS89; MRSA KS8 (head; KS89 in title), ratio of MIC of vancomycin and MIC of analogue): 0.1 | MIC (MRSA KS89; Staphylococcus aureus MRSA KS8 (head; KS89 in title), read-out: MIC): 6.25 µM (≈ 10.1 µg/mL) | MIC-fold improvement vs. vancomycin (MRSA KS1; MRSA KS1, ratio of MIC of vancomycin and MIC of analogue): 0.05 | MIC (MRSA KS1; Staphylococcus aureus MRSA KS1, read-out: MIC): 12.5 µM (≈ 20.3 µg/mL) | MIC Range (33 clinical VRE isolates; 33 clinical VRE isolates): 3.13 to 12.5 µM | MIC50 (33 clinical VRE isolates; Enterococcus, median MIC, 33 clinical VRE isolates, read-out: MIC50): 6.25 µM (≈ 10.1 µg/mL) | TI (IC50/MIC50) (33 clinical VRE isolates; in vitro therapeutic index, VRE): 40 | MIC Range ([6]; 24 clinical MRSA isolates): 0.78 to 12.5 µM | MIC50 ([6]; Staphylococcus aureus, median MIC, 24 clinical MRSA isolates, read-out: MIC50): 0.78 µM (≈ 1.26 µg/mL) | TI (IC50/MIC50) ([6]; in vitro therapeutic index, MRSA): 321 | MIC-fold improvement vs. vancomycin ([7]; C. difficile ATJ ribotype 014/20): 22 | MIC ([7]; Clostridioides difficile, C. difficile ATJ ribotype 014/20, plate drop assay): 1.56 µM (≈ 2.53 µg/mL) | MIC-fold improvement vs. vancomycin ([8]; C. difficile AIU ribotype 027): 29 | MIC ([8]; Clostridioides difficile, C. difficile AIU ribotype 027, plate drop assay): 1.56 µM (≈ 2.53 µg/mL) | MIC (VE 148 (VanB)): 25 µM (≈ 40.5 µg/mL) | MIC (VE 149 (VanB)): 25 µM (≈ 40.5 µg/mL) | MIC (VE 150 (VanB)): 25 µM (≈ 40.5 µg/mL) | MIC (VE 152 (VanB)): 25 µM (≈ 40.5 µg/mL) | MIC (VE 157 (VanB)): 12.5 µM (≈ 20.3 µg/mL) | MIC (VE 82 (VanC1)): 12.5 µM (≈ 20.3 µg/mL) | MBC relative to MIC (MRSA): MBC equaling their MIC values
